Values quoted from earlier work as cited in patent publication US5362496A, “Method and therapeutic system for smoking cessation” (priority 1993, dated 1994).
Like-named read-outs stand apart in the source and are kept apart here. Peptide text beside a SMILES is read from it.

Key:
[1] = relative, Sucrose = 1.0
[2] = tested on: Streptococcus mutans and other oral microorganisms
[3] = in vitro and in vivo studies
[4] = humans
[5] = human cadaver skin in vitro
[6] = free base; mucous membranes and intact skin
[7] = tested on: nicotinic cholinergic receptors in the central nervous system and at autonomic ganglia; conditions: in 10 minutes

Row | Molecule | Sweetness [1] | cariogenicity [2] | further results
1 | CC1=CC(=O)NS(=O)(=O)O1 [Acesulfame] | 200 |  | 
2 | COC(=O)[C@H](Cc1ccccc1)NC(=O)[C@@H](N)CC(=O)O [Aspartame] (H-Asp-Phe-OMe) | 100-200 |  | 
3 | O=S(=O)(O)NC1CCCCC1 [Cyclamate] | 30-40 |  | 
4 | OC[C@@H](O)[C@@H](O[C@H]1O[C@H](CO)[C@@H](O)[C@H](O)[C@H]1O)[C@H](O)[C@@H](O)CO [Maltitol] | 0.7-0.9 | generally not fermented to any significant degree and are less cariogenic than sucrose | 
5 | OC[C@@H](O)[C@@H](O)[C@H](O)[C@H](O)CO [Mannitol] | 0.4-0.6 | generally not fermented to any significant degree and are less cariogenic than sucrose | 
6 | COc1ccc([C@@H]2CC(=O)c3c(O)cc(O[C@@H]4O[C@H](CO)[C@@H](O)[C@H](O)[C@H]4O[C@@H]4O[C@@H](C)[C@H](O)[C@@H](O)[C@H]4O)cc3O2)cc1O [Neohesperidine] | 1000 |  | 
7 | O=C(CO)[C@@H](O)[C@H](O)[C@H](O)CO[C@H]1O[C@H](CO)[C@@H](O)[C@H](O)[C@H]1O [Palantinose] | 0.4-0.5 | generally not fermented to any significant degree and are less cariogenic than sucrose | 
8 | O=C1NS(=O)(=O)c2ccccc21 [Saccharin] | 400-500 |  | 
9 | OC[C@@H](O)[C@@H](O)[C@H](O)[C@@H](O)CO [Sorbitol] | 0.5-0.6 | generally not fermented to any significant degree and are less cariogenic than sucrose | 
10 | OC[C@@H](O)[C@H](O)[C@@H](O)CO [Xylitol] | 1.0 | generally not fermented to any significant degree and are less cariogenic than sucrose | effect on development of new caries [3]: inhibit the development of new caries; effect on food intake [4]: decrease food intake; effect on gastric emptying [4]: prolong gastric emptying
11 | CC1(C)[C@@H](O[C@H]2O[C@H](C(=O)O)[C@@H](O)[C@H](O)[C@H]2O[C@@H]2O[C@H](C(=O)O)[C@@H](O)[C@H](O)[C@H]2O)CC[C@]2(C)[C@H]3C(=O)C=C4[C@@H]5C[C@@](C)(C(=O)O)CC[C@]5(C)CC[C@@]4(C)[C@]3(C)CC[C@@H]12 [ammonium glycyrrhizinate] |  | generally not fermented to any significant degree and are less cariogenic than sucrose | 
12 | O=C(CO)[C@@H](O)[C@H](O)[C@H](O)CO [fructose] |  | generally not fermented to any significant degree and are less cariogenic than sucrose | 
13 | O=C[C@H](O)[C@@H](O)[C@H](O)[C@H](O)CO [glucose] |  | cariogenic or caries causing | 
14 | CN1CCCC1c1cccnc1 (stereo not shown) [nicotine] |  |  | skin permeability ([5]; first day of patch use): ~0.1 mg/cm^2 ·h; skin permeability ([5]; later times): ≥ 0.4 mg/cm^2 ·h; absorption through membranes and skin [6]: absorbed readily through mucous membranes and intact skin; lipid solubility: highly lipid soluble; volatility (free base): extremely volatile; light stability (ultraviolet light): degrades when exposed to ultraviolet light; rise in nicotine blood level required for postsynaptic effects [7]: at least 10 ng/mL
15 | OC[C@H]1O[C@@](CO)(O[C@H]2O[C@H](CO)[C@@H](O)[C@H](O)[C@H]2O)[C@@H](O)[C@@H]1O [sucrose, reference compound] |  | cariogenic or caries causing | 
16 | Monellin | 2500 |  | 
17 | starch |  | cariogenic or caries causing | 
